The structures appear in SMILES notation.

The assay addresses T1, hURAT1 transporter (URAT-1) (Homo sapiens, UniProt Q96S37).
T1 construct: Full-length human URAT1 gene (SLC22A12) was subcloned from plasmid pCMV6-XL5
T1 sequence (Q96S37 1-553): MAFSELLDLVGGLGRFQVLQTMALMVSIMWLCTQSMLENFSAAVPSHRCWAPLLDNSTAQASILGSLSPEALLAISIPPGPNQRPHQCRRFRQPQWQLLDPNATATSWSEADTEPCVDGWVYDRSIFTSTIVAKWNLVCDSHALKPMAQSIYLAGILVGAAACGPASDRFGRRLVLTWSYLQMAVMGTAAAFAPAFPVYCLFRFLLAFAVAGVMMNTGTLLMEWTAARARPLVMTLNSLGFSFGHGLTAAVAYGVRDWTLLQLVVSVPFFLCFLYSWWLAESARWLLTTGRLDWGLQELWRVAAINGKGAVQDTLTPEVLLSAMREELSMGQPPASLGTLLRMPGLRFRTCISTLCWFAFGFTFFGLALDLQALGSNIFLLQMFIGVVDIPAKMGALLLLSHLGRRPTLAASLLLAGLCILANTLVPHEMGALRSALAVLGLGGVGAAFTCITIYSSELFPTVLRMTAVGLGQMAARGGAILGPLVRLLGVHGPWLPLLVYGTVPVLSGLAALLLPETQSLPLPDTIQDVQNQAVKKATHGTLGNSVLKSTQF
The assay can be described thus: Uric Acid Uptake Assay (URAT-1 EC50). The assay is classed as cell-based. The settings on record: HEK293/urat1 cells, C14 uric acid uptake, 40 μM uric acid, 10 minutes at room temperature. The text has this: Uric Acid Uptake Assay (URAT-1 EC50)
Creation of Stable Cell Lines Expressing hURAT1 Transporter: Full-length human URAT1 gene (SLC22A12) was subcloned from plasmid pCMV6-XL5 (Origene) into eukaryotic expression plasmid pCMV6/Neo (Origene) using Not I restriction sites. Gene sequencing confirmed the sequence of hURAT1 as outlined in Genbank (Accession #NM_144585.2). HEK293 human embryonic kidney cells (ATCC#CRL-1573) were propagated in EMEM tissue culture medium as described by ATCC in an atmosphere of 5% CO2 and 95% air. Transfections of HEK293 cells with the pCMV6/Neo/URAT1 construct were performed using L2000 transfection reagent (Invitrogen) as described by the manufacturer. After 24 h the transfected cells were split into 10 cm tissue culture plates and grown for 1 day after which the medium was replaced with fresh growth medium containing G418 (Gibco) at 0.5 mg/ml final concentration. Drug-resistant colonies were selected after approximately 8 days and then tested for ^14C-uric acid transport activity. The HEK293/urat1 cells are plated on Poly-D-Lysine Coated 96-well Plates at a density of 75,000 cells per well.
Cells were grown overnight (20-26 hours) at 37° C. in an incubator. Plates were allowed to come to room temperature and media was washed out with one wash of 250 μl of Wash Buffer (125 mM Na Gluconate, 10 mM Hepes pH 7.3). Compound or vehicle is added in assay buffer with C14 Uric Acid for a final concentration of 40 μM Uric Acid with a specific activity of 54 mCi/mmol Assay Buffer is 125 mM Sodium Gluconate, 4.8 mM Potassium Gluconate, 1.2 mM Potassium phosphate, monobasic, 1.2 mM magnesium sulfate, 1.3 mM Ca Gluconate, 5.6 mM Glucose, 25 mM HEPES, pH 7.3. Plates were incubated at room temperature for 10 minutes then washed 3 times with 50 μl Wash Buffer and 3 times with 250 μl Wash Buffer. Microscint 20 Scintillation Fluid was added and plates were incubated overnight at 45° C. to equilibrate. Plates are then read on the TopCount Plate Reader and an EC50 value generated. (See Enomoto et al, Nature, 2002, 417, 447-451 and Anzai et al, J. Biol. Chem., 2004, 279, 45942-45950.)
Compounds prepared as described above in examples 24-32, were examined according to the procedure described herein and EC50 values generated. The table below summarizes the activity of the compounds in the Uric Acid Uptake Assay, wherein
With `Cc1[nH]nc(OC(C)(C)C(=O)O)c1-c1cccc2ccccc12` [26 (step D), 2-methyl-2-(5-methyl-4-(naphthalen-1-yl)-1H-pyrazol-3-yloxy)propanoic acid], the EC50 was < 5 µM. Next, `CC(C)(Sc1cnnn1-c1cccc2ccccc12)C(=O)O` [Example 28, 2-Methyl-2-(1-(naphthalen-1-yl)-1H-1,2,3-triazol-5-ylthio)propanoic acid]: < 5 µM. Then `CCOC(=O)C(C)(C)Oc1n[nH]c(C)c1-c1cccc2ccccc12` [26 (step C), Ethyl 2-methyl-2-(5-methyl-4-(naphthalen-1-yl)-1H-pyrazol-3-yloxy)propanoate], with < 5 µM; and `CC(C)(Oc1ccnn1-c1cccc2ccccc12)C(=O)O` [Example 24, 2-Methyl-2-(1-(naphthalen-1-yl)-1H-pyrazol-5-yloxy)propanoic acid], with 5 to 20 µM. Then `CC(C)(Sc1nnnn1-c1cccc2ccccc12)C(=O)O` [Example 30, 2-Methyl-2-(1-(naphthalen-1-yl)-1H-tetrazol-5-ylthio)propanoic acid], with < 5 µM; and `CC(C)(Sc1ccnn1-c1cccc2ccccc12)C(=O)O` [Example 25, 2-Methyl-2-(1-(naphthalen-1-yl)-1H-pyrazol-5-ylthio)propanoic acid], with < 5 µM. Regarding `O=C(O)CSc1snnc1-c1cccc2ccccc12` [Example 32, 2-(4-(Naphthalen-1-yl)-1,2,3-thiadiazol-5-ylthio)acetic acid], the EC50 lay in the range of 5 to 20 µM.

Values taken from patent US8372807B2, “Methods of modulating uric acid levels” (Ardea Biosciences, Inc., priority 2009, dated 2013).
